#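 The compound was tested at five concentrations on cells cultured in 96-well plates, with a 48-hour exposure period. GI50 is the concentration that inhibits growth by half. TGI: total growth inhibition.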
# Columns and labels:
# Assay in all cases: growth of human tumour cells (NCI), 48 h
# 786-0 renal = system: 786-0 renal
# A498 renal = system: A498 renal
# A549 NSCLC = system: A549 NSCLC
# ACHN renal = system: ACHN renal
# BT-549 breast = system: BT-549 breast
# CAKI-1 renal = system: CAKI-1 renal
# CCRF-CEM leukemia = system: CCRF-CEM leukemia
# COLO 205 colon = system: COLO 205 colon
# DU-145 prostate = system: DU-145 prostate
# EKVX NSCLC = system: EKVX NSCLC
# HCC-2998 colon = system: HCC-2998 colon
# HCT-116 colon = system: HCT-116 colon
# HCT-15 colon = system: HCT-15 colon
# HL-60(TB) leukemia = system: HL-60(TB) leukemia
# HOP-62 NSCLC = system: HOP-62 NSCLC
# HOP-92 NSCLC = system: HOP-92 NSCLC
# HS 578T breast = system: HS 578T breast
# HT29 colon = system: HT29 colon
# IGROV1 ovarian = system: IGROV1 ovarian
# K-562 leukemia = system: K-562 leukemia
# KM12 colon = system: KM12 colon
# LOX IMVI melanoma = system: LOX IMVI melanoma
# M14 melanoma = system: M14 melanoma
# MALME-3M melanoma = system: MALME-3M melanoma
# MCF7 breast = system: MCF7 breast
# MDA-MB-231 breast = system: MDA-MB-231 breast
# MDA-MB-435 = system: MDA-MB-435
# MOLT-4 leukemia = system: MOLT-4 leukemia
# NCI-H226 lung = system: NCI-H226 lung
# NCI-H23 lung = system: NCI-H23 lung
# NCI-H460 lung = system: NCI-H460 lung
# NCI-H522 lung = system: NCI-H522 lung
# NCI/ADR-RES ovarian = system: NCI/ADR-RES ovarian
# OVCAR-4 ovarian = system: OVCAR-4 ovarian
# OVCAR-5 ovarian = system: OVCAR-5 ovarian
# OVCAR-8 ovarian = system: OVCAR-8 ovarian
# PC-3 prostate = system: PC-3 prostate
# RPMI-8226 leukemia = system: RPMI-8226 leukemia
# RXF 393 renal = system: RXF 393 renal
# SF-268 CNS = system: SF-268 CNS
# SF-295 CNS = system: SF-295 CNS
# SF-539 CNS = system: SF-539 CNS
# SK-MEL-2 melanoma = system: SK-MEL-2 melanoma
# SK-MEL-28 melanoma = system: SK-MEL-28 melanoma
# SK-MEL-5 melanoma = system: SK-MEL-5 melanoma
# SK-OV-3 ovarian = system: SK-OV-3 ovarian
# SN12C renal = system: SN12C renal
# SNB-19 CNS = system: SNB-19 CNS
# SNB-75 CNS = system: SNB-75 CNS
# SR leukemia = system: SR leukemia
# SW-620 colon = system: SW-620 colon
# T-47D breast = system: T-47D breast
# TK-10 renal = system: TK-10 renal
# U251 CNS = system: U251 CNS
# UACC-257 melanoma = system: UACC-257 melanoma
# UO-31 renal = system: UO-31 renal
smiles,measurement,setting,value
COc1cccc2c1C=CC1(O2)Oc2cccc(OC)c2C=C1C (stereo unspecified),GI50,786-0 renal,563 nM
same,GI50,A498 renal,486 nM
same,TGI,A498 renal,5430 nM
same,GI50,A549 NSCLC,821 nM
same,TGI,A549 NSCLC,> 100000 nM
same,GI50,ACHN renal,699 nM
same,TGI,ACHN renal,> 100000 nM
same,GI50,BT-549 breast,656 nM
same,TGI,BT-549 breast,6390 nM
same,GI50,CAKI-1 renal,461 nM
same,TGI,CAKI-1 renal,> 100000 nM
same,GI50,CCRF-CEM leukemia,356 nM
same,TGI,CCRF-CEM leukemia,3320 nM
same,GI50,COLO 205 colon,243 nM
same,TGI,COLO 205 colon,587 nM
same,GI50,DU-145 prostate,727 nM
same,TGI,DU-145 prostate,> 100000 nM
same,GI50,EKVX NSCLC,2110 nM
same,TGI,EKVX NSCLC,> 100000 nM
same,GI50,HCC-2998 colon,1430 nM
same,TGI,HCC-2998 colon,9320 nM
same,GI50,HCT-116 colon,413 nM
same,TGI,HCT-116 colon,10500 nM
same,GI50,HCT-15 colon,420 nM
same,TGI,HCT-15 colon,> 43600 nM
same,GI50,HL-60(TB) leukemia,364 nM
same,TGI,HL-60(TB) leukemia,> 100000 nM
same,GI50,HOP-62 NSCLC,1490 nM
same,TGI,HOP-62 NSCLC,> 100000 nM
same,GI50,HOP-92 NSCLC,316 nM
same,GI50,HS 578T breast,2100 nM
same,TGI,HS 578T breast,> 100000 nM
same,GI50,HT29 colon,404 nM
same,GI50,IGROV1 ovarian,794 nM
same,TGI,IGROV1 ovarian,> 100000 nM
same,GI50,K-562 leukemia,347 nM
same,TGI,K-562 leukemia,> 100000 nM
same,GI50,KM12 colon,544 nM
same,TGI,KM12 colon,> 100000 nM
same,GI50,LOX IMVI melanoma,515 nM
same,TGI,LOX IMVI melanoma,3950 nM
same,GI50,M14 melanoma,345 nM
same,TGI,M14 melanoma,4890 nM
same,GI50,MALME-3M melanoma,899 nM
same,TGI,MALME-3M melanoma,48000 nM
same,GI50,MCF7 breast,383 nM
same,TGI,MCF7 breast,> 100000 nM
same,GI50,MDA-MB-231 breast,596 nM
same,TGI,MDA-MB-231 breast,> 60200 nM
same,GI50,MDA-MB-435,226 nM
same,TGI,MDA-MB-435,556 nM
same,GI50,MOLT-4 leukemia,430 nM
same,GI50,NCI-H226 lung,1750 nM
same,TGI,NCI-H226 lung,> 100000 nM
same,GI50,NCI-H23 lung,1370 nM
same,TGI,NCI-H23 lung,> 100000 nM
same,GI50,NCI-H460 lung,426 nM
same,TGI,NCI-H460 lung,2490 nM
same,GI50,NCI-H522 lung,290 nM
same,GI50,NCI/ADR-RES ovarian,417 nM
same,TGI,NCI/ADR-RES ovarian,> 81700 nM
same,GI50,OVCAR-4 ovarian,6390 nM
same,TGI,OVCAR-4 ovarian,> 100000 nM
same,GI50,OVCAR-5 ovarian,1300 nM
same,TGI,OVCAR-5 ovarian,> 100000 nM
same,GI50,OVCAR-8 ovarian,1340 nM
same,TGI,OVCAR-8 ovarian,6820 nM
same,GI50,PC-3 prostate,376 nM
same,TGI,PC-3 prostate,> 36400 nM
same,GI50,RPMI-8226 leukemia,352 nM
same,TGI,RPMI-8226 leukemia,2350 nM
same,GI50,RXF 393 renal,300 nM
same,TGI,RXF 393 renal,1630 nM
same,GI50,SF-268 CNS,1840 nM
same,TGI,SF-268 CNS,> 100000 nM
same,GI50,SF-295 CNS,359 nM
same,TGI,SF-295 CNS,> 44200 nM
same,GI50,SF-539 CNS,363 nM
same,TGI,SF-539 CNS,1840 nM
same,GI50,SK-MEL-2 melanoma,588 nM
same,GI50,SK-MEL-28 melanoma,2880 nM
same,TGI,SK-MEL-28 melanoma,> 100000 nM
same,GI50,SK-MEL-5 melanoma,521 nM
same,TGI,SK-MEL-5 melanoma,11000 nM
same,GI50,SK-OV-3 ovarian,700 nM
same,TGI,SK-OV-3 ovarian,> 100000 nM
same,GI50,SN12C renal,683 nM
same,TGI,SN12C renal,> 100000 nM
same,GI50,SNB-19 CNS,649 nM
same,TGI,SNB-19 CNS,> 100000 nM
same,GI50,SNB-75 CNS,218 nM
same,TGI,SNB-75 CNS,1510 nM
same,GI50,SR leukemia,284 nM
same,TGI,SR leukemia,2060 nM
same,GI50,SW-620 colon,434 nM
same,TGI,SW-620 colon,> 100000 nM
same,GI50,T-47D breast,858 nM
same,TGI,T-47D breast,> 100000 nM
same,GI50,TK-10 renal,12200 nM
same,TGI,TK-10 renal,> 100000 nM
same,GI50,U251 CNS,415 nM
same,TGI,U251 CNS,5520 nM
same,GI50,UACC-257 melanoma,1510 nM
same,TGI,UACC-257 melanoma,> 100000 nM
same,GI50,UO-31 renal,1270 nM
same,TGI,UO-31 renal,> 100000 nM
